Laboratory results from PubChem BioAssay AID743098 (Vanderbilt Specialized Chemistry Center, 2013).
Calls of active or inactive are those of the source. No rule for the calls is given here.

Target: Muscarinic acetylcholine receptor M1 (Homo sapiens) (UniProt P11229)
Assay: M1 receptor allosteric modulation check, selectivity assay for M5 NAM discovery project, cell-based, human M1 (AID 743098)
Conditions: CHO-K1 hM1 calcium flux, Fluo-4, ACh EC20; at 30 µM; stronger effect = lower value

Sequence of Muscarinic acetylcholine receptor M1 (Homo sapiens) (P11229 whole entry, looked up): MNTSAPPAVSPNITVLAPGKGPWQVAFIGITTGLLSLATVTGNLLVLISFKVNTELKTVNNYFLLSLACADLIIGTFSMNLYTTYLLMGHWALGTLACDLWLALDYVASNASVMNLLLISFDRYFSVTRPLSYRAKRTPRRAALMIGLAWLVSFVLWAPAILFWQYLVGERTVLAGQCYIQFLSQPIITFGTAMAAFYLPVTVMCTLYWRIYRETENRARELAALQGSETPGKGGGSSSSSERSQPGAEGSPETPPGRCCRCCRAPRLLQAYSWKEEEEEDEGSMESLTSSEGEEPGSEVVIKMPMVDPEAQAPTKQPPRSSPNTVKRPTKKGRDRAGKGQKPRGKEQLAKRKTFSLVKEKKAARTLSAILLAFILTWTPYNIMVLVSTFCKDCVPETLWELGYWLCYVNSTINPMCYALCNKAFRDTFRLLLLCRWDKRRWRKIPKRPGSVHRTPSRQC

| Structure (SMILES) | response, % of max ACh |
| --- | --- |
| O=C(c1ccc(F)c(F)c1)N1CCN2C(=O)c3ccccc3C12c1ccccc1 (stereo not given) | 87.2% (inactive) |
| O=C(c1ccc(F)c(F)c1)N1CCN2C(=O)c3ccccc3[C@@]12c1ccc(Cl)cc1 | 66.4% (inactive) |
| O=C(c1ccc(F)cc1)N1CCN2C(=O)c3ccccc3C12c1ccccc1 (stereo not given) | 83.6% (inactive) |
| O=C(c1ccc(F)c(F)c1)N1CCN2C(=O)c3ccccc3C12c1ccc(Cl)cc1 (stereo not given) | 80.5% (inactive) |
| O=C(c1cc(F)cc(F)c1)N1CCN2C(=O)c3ccccc3C12c1ccc(Cl)cc1 (stereo not given) | 79.9% (inactive) |
